In patent US11629118B2, “Formulations with improved stability” (INSPIRNA, INC., priority 2017, dated 2023):
≈ marks a conversion by molar mass, not a printed value.

Assays:
[1] = Solubility study of Compound (II) in lipid excipients and surfactants; type: physicochemical; details: for solubility: thermodynamic from solid
Experimental: Compound (II) HCl and Compound (II) free base was weighed into vials and the appropriate amount of excipient was added to achieve the desired concentration. Heating and sonication was used, if necessary, to achieve clear solutions. Limits of solubility of Compound (II) free base and Compound (II) HCl (amorphous form) are noted in Table 1.

[2] = Binary stressed-stability / compatibility study with excipients; type: physicochemical; details: in contact with Maisine 35-1 and Gelucire 44/14 (70:30 w/w)
Source text: The compatibility of Compound ([…]) with the following solubilizing/emulsifying excipients: Maisine 35-1; Gelucire 44/14; sodium oleate; sodium stearate; vitamin E TPGS; lysine; and sodium EDTA.

physchem = details: oil or lipid
Experimental: (§1) A further solubility study of Compound (II) was conducted using lipid excipients and surfactants. Maisine 35-1 (glycerol linoleates):Gelucire 44/14 (lauroyl macrogol-32 glycerides):Lauroglycol 90 (propylene glycol monolaurate) mixtures were tested to explore the optimal combination. The following ranges of each substance were tested: (1) 40-80% (w/w) Maisine 35-1; (2) 20-40% (w/w) Gelucire 44/14; and (3) 0-20% (w/w) Lauroglycol 90.

[3] = Further solubility study in Maisine 35-1:Gelucire 44/14:Lauroglycol 90 mixtures; details: 40-80% (w/w) Maisine 35-1; 20-40% Gelucire 44/14; 0-20% Lauroglycol 90
Experimental: as §1

C[C@H](CCOc1cccc(CC(=O)O)c1)N(Cc1cccc(C(F)(F)F)c1Cl)CC(c1ccccc1)c1ccccc1 [Compound (II), 2-{3-[(3R)-3-({[2-chloro-3-(trifluoromethyl)phenyl]methyl}(2,2-diphenylethyl)amino)butoxy]phenyl}acetic acid]
solubility ([1]; aqueous with cosolvent or surfactant or cyclodextrin, excipient Tween-20, read-out: Limit of solubility in Tween-20): > 200 mg/mL | solubility ([1]; aqueous with cosolvent or surfactant or cyclodextrin, excipient Tween-80, read-out: Limit of solubility in Tween-80): > 200 mg/mL | solubility ([1]; aqueous with cosolvent or surfactant or cyclodextrin, excipient VitE-TPGS, read-out: Limit of solubility in VitE-TPGS): > 200 mg/mL | solubility ([1]; oil or lipid, excipient Capryol 90, read-out: Limit of solubility in Capryol 90): > 200 mg/mL | solubility ([1]; oil or lipid, excipient Capryol PGMC, read-out: Limit of solubility in Capryol PGMC): > 200 mg/mL | solubility ([1]; oil or lipid, excipient Cremophor EL, read-out: Limit of solubility in Cremophor EL): > 200 mg/mL | solubility ([1]; oil or lipid, excipient Cremophor RH-40, read-out: Limit of solubility in Cremophor RH-40): > 200 mg/mL | solubility ([1]; oil or lipid, excipient Gelucire 44/14, read-out: Limit of solubility in Gelucire 44/14): > 200 mg/mL | solubility ([1]; oil or lipid, excipient Gelucire 50/13, read-out: Limit of solubility in Gelucire 50/13): 150 mg/mL (≈ 252 mM) | solubility ([1]; oil or lipid, excipient Labrafac Lipo WL 1349, heating and sonication if necessary, read-out: Limit of solubility in Labrafac Lipo WL 1349): > 200 mg/mL | solubility ([1]; oil or lipid, excipient Labrafac PG, read-out: Limit of solubility in Labrafac PG): > 200 mg/mL | solubility ([1]; oil or lipid, excipient Labrafil M 1944 CS, read-out: Limit of solubility in Labrafil M 1944 CS): > 200 mg/mL | solubility ([1]; oil or lipid, excipient Labrafil M 2125 CS, read-out: Limit of solubility in Labrafil M 2125 CS): > 200 mg/mL | solubility ([1]; oil or lipid, excipient Labrafil M 2130 CS, read-out: Limit of solubility in Labrafil M 2130 CS): > 200 mg/mL | solubility ([1]; oil or lipid, excipient Labrasol, read-out: Limit of solubility in Labrasol): > 200 mg/mL | solubility ([1]; oil or lipid, excipient Lauroglycol 90, read-out: Limit of solubility in Lauroglycol 90): > 200 mg/mL | solubility ([1]; oil or lipid, excipient Lauroglycol FCC, read-out: Limit of solubility in Lauroglycol FCC): > 200 mg/mL | solubility ([1]; oil or lipid, excipient Maisine 35-1, read-out: Limit of solubility in Maisine 35-1): > 200 mg/mL | solubility ([1]; oil or lipid, excipient Peceol, read-out: Limit of solubility in Peceol): > 200 mg/mL | solubility ([1]; oil or lipid, excipient Phosal 50-PG, read-out: Limit of solubility in Phosal 50-PG): > 200 mg/mL | solubility ([1]; oil or lipid, excipient Phosal 53 MCT, read-out: Limit of solubility in Phosal 53 MCT): > 200 mg/mL | solubility ([1]; oil or lipid, excipient Plurol Oleique CC 497, read-out: Limit of solubility in Plurol Oleique CC 497): > 200 mg/mL | solubility ([1]; organic solvent or mixture, excipient Ethanol, read-out: Limit of solubility in Ethanol): > 200 mg/mL | solubility ([1]; organic solvent or mixture, excipient PEG-200, read-out: Limit of solubility in PEG-200): > 200 mg/mL | solubility ([1]; organic solvent or mixture, excipient PEG-300, read-out: Limit of solubility in PEG-300): > 200 mg/mL | solubility ([1]; organic solvent or mixture, excipient PEG-400, read-out: Limit of solubility in PEG-400): > 200 mg/mL | solubility ([1]; organic solvent or mixture, excipient Propylene Glycol, read-out: Limit of solubility in Propylene Glycol): > 200 mg/mL | solubility ([1]; organic solvent or mixture, excipient Transcutol, read-out: Limit of solubility in Transcutol): > 200 mg/mL | Degradation ([2]; after 15 days of storage at −20° C.): No significant degradation | Short-term stability ([2]; room temperature (about 20° C.) for 8 days): acceptable | Degradation ([2]; room temperature, by 15 days): approximately 9% | solubility (physchem): > 250 mg/mL

C[C@H](CCOc1cccc(CC(=O)O)c1)N(Cc1cccc(C(F)(F)F)c1Cl)CC(c1ccccc1)c1ccccc1.Cl [Compound (II) HCl salt]
Limit of solubility in Capmul MCM ([1]; excipient Capmul MCM): 50 mg/mL | Limit of solubility in Capryol 90 ([1]; excipient Capryol 90): 150 mg/mL | Limit of solubility in Capryol PGMC ([1]; excipient Capryol PGMC): 150 mg/mL | Limit of solubility in Cremophor EL ([1]; excipient Cremophor EL): 150 mg/mL | Limit of solubility in Cremophor RH-40 ([1]; excipient Cremophor RH-40): 150 mg/mL | Limit of solubility in Ethanol ([1]; excipient Ethanol): 200 mg/mL | Limit of solubility in Gelucire 44/14 ([1]; excipient Gelucire 44/14): 100 mg/mL | Limit of solubility in Gelucire 50/13 ([1]; excipient Gelucire 50/13): 50 mg/mL | Limit of solubility in Labrafil M 1944 CS ([1]; excipient Labrafil M 1944 CS): 25 mg/mL | Limit of solubility in Labrafil M 2125 CS ([1]; excipient Labrafil M 2125 CS): 25 mg/mL | Limit of solubility in Labrafil M 2130 CS ([1]; excipient Labrafil M 2130 CS): 25 mg/mL | Limit of solubility in Labrasol ([1]; excipient Labrasol): 150 mg/mL | Limit of solubility in Lauroglycol 90 ([1]; excipient Lauroglycol 90): 150 mg/mL | Limit of solubility in Lauroglycol FCC ([1]; excipient Lauroglycol FCC): 100 mg/mL | Limit of solubility in Maisine 35-1 ([1]; excipient Maisine 35-1): 150 mg/mL | Limit of solubility in PEG-200 ([1]; excipient PEG-200): 200 mg/mL | Limit of solubility in PEG-300 ([1]; excipient PEG-300): 200 mg/mL | Limit of solubility in PEG-400 ([1]; excipient PEG-400): 200 mg/mL | Limit of solubility in Peceol ([1]; excipient Peceol): 150 mg/mL | Limit of solubility in Phosal 50-PG ([1]; excipient Phosal 50-PG): 200 mg/mL | Limit of solubility in Phosal 53 MCT ([1]; excipient Phosal 53 MCT): 150 mg/mL | Limit of solubility in Plurol Oleique CC 497 ([1]; excipient Plurol Oleique CC 497): 50 mg/mL | Limit of solubility in Propylene Glycol ([1]; excipient Propylene Glycol): 200 mg/mL | Limit of solubility in Transcutol ([1]; excipient Transcutol): 150 mg/mL | Limit of solubility in Tween-20 ([1]; excipient Tween-20): 200 mg/mL | Limit of solubility in Tween-80 ([1]; excipient Tween-80): 200 mg/mL | Limit of solubility in VitE-TPGS ([1]; excipient VitE-TPGS): 150 mg/mL | Solubility in Maisine 35-1:Gelucire 44/14:Lauroglycol 90 mixtures [3]: 150 to 200 mg/mL
